“Also recorded” adds a separate entry of the source.
What was measured:
[1] = system: Arabidopsis (Col) seeds; assay: Arabidopsis seed germination/greening assay in presence of ABA; type: in vivo; details: for blocking of ABA inhibition of cotyledon greening: 30 μM pure compound
Procedure: To evaluate and prioritize the 204 hits obtained, we examined their effects on ABA-mediated inhibition of Arabidopsis seed germination and seedling growth. Arabidopsis seeds germinate and produce photosynthetically active cotyledons within 4-days post imbibition under illumination. Low concentrations of ABA (i.e. 1 μM) inhibit both germination and seedling growth, which is easily quantified by image analysis of green pixel counts. This provides a simple test for ABA antagonists, as they will block the inhibitory effects of ABA on greening. We used this assay to characterize the 204 hit molecules. Greening experiments were performed in 96-well polystyrene petri plates using surface sterilized Arabidopsis (Col) seeds plated on to 0.7% agar medium containing ½-X MS salts, 0.5% sucrose, 1 μM ABA, and one of the 204 click reactions products (˜10 μM). After 4 days of stratification (4° C.), the plates were transferred to a growth chamber under continuous illumination and photographed 4 days later. Each experiment included ABA (1 μM ABA, no antagonist) and mock (no ABA) controls.
The OP-4-triazoles 48E9T, 49C10T, 49 Å2T, 1H6T and 6E4T were tested in Arabidopsis greening assays at 30 μM in presence or absence of 1 μM ABA using conditions described in Example 7. […] (FIG. 7).
Purified triazoles were evaluated for their ability to block the effects of exogenous ABA in inhibiting seed germination/greening, performed as described in Example 7 using the purified OP-4-peptidotriazole hits, PanMe, AA1, and OPZ at concentrations ranging from 200 nM to 50000 nM in triplicate in presence of 1 μM ABA. Seed germination was scored at the lowest concentration tested, while greening data (normalized to mock control) was fitted to log(inhibitor) vs. response-(variable slope) model using non-linear regression to infer the EC50S, using GraphPad Prism 6.0.

[2] = system: ABA receptors (PYR1, PYL4, PYL8); assay: ABA receptor antagonism in vitro, statements not resolved by receptor (PYR1, PYL4, PYL8 panel); type: biochemical, Arabidopsis
Procedure: (§1) Prior to synthesizing a library of OP-4-triazoles we conducted model click reactions to establish the feasibility and efficiency of using unpurified reaction mixtures directly in ABA receptor activation assays. These reactions were performed using OPZ and 4-ethynyltoluene as follows: we mixed OPZ (4 uL, 25 mM), alkyne (10 uL, 10 mM), sodium ascorbate (2 uL, 20 mM), BTTA (2 uL, 20 mM) and copper(II) sulphate (2 uL, 10 mM) in a 200 μL PCR tube and incubated the reaction at 37° C. for 48 hr. The reaction was monitored using TLC. In parallel, we ran a scaled-up synthesis of the triazole using similar ratios of the reagents and conditions, followed by precipitation of the product by the addition of 2N HCl and subsequent filtration to yield triazole T1 from 4-ethynyltoluene as white powder in quantitative yields. The purified triazole and unpurified click reaction were both tested in receptor-mediated phosphatase inhibition assays. […] Reactions were mixed and equilibrated for 20 minutes, substrate (4-methylumbelliferyl phosphate, 1 mM final) was added, and fluorescence data were collected (λ, exc=360 nm, λ emm=460 nm) using a Tecan Infinite F200 Pro fluorimeter. PP2C activity was calculated relative to solvent-only control wells (i.e. receptors and PP2C in assay buffer, but no test compound); compounds were tested in duplicate. […]

[3] = system: Arabidopsis seeds; assay: Thermoinhibition of seed germination assay; type: in vivo; details: 0.2 μM to 50 μM, 37° C. in dark for 72 hrs
From the text: Adverse environmental conditions during germination can affect dormancy in several species. For example, high temperatures during seed imbibition can prevent seed germination and induce a form of secondary seed dormancy in a process called thermoinhibition. Although thermoinhibtion is complex, elevated ABA levels induced by heat play a critical role, as evidenced by both the identification of ABA-deficient varieties of lettuce with reduced sensitivity to thermoinhibition and pharmacological experiments using fluridone, which disrupts ABA biosynthesis and thermoinhibition in many species. Chemicals that can counter this effect of heat stress could find use as seed treatments to ensure consistent germination under adverse conditions. […] 96 well polystyrene petri plates with surface sterilized Arabidopsis seeds plated on 0.7% agar medium containing ½-x MS salts, 0.5% sucrose, and doses spanning from 0.2 μM to 50 μM of different OP-4-peptidotriazoles, PanMe, AA1, OPZ and fluridone as a positive control. After 4 d of stratification at 4° C., the plates were transferred to an incubation chamber at 37° C. in dark for 72 hrs. After heat treatment, the plates were placed in dark in an incubation chamber at RT for 48 hrs and photographed.

[4] = system: ABA receptors; details: cited from earlier work
[5] = Light sensitivity of the isolated product; type: physicochemical; details: isolated solid, stored at −20° C.
Procedure: 142-(4-Azido-3,5-dicyclopropylphenyl)acetylaminolcyclohexanecarboxylic acid (2b; OPZ) To a solution of 2a (0.4 g, 1.01 mmoles, 1 equiv) in methanol/water 20 mL (1:1 v/v) was added lithium hydroxide (0.48 g, 20.2 mmoles, 20 equiv) and stirred at RT for 24 hr. After completion of the reaction (TLC), 2N HCl was added to the reaction mixture to precipitate the product as a white solid in near quantitative yields.

[6] = target: T1, PYR1 (Arabidopsis thaliana, UniProt O49686); assay: ABA/receptor-mediated PP2C (ΔN-HAB1) phosphatase inhibition assay, PYR1; type: biochemical; details: 100 nM PYR1, 25 nM ΔN-HAB1, 50 μM test compound, presence or absence of 5 μM ABA
T1 construct: made in house
T1 sequence (O49686 1-191): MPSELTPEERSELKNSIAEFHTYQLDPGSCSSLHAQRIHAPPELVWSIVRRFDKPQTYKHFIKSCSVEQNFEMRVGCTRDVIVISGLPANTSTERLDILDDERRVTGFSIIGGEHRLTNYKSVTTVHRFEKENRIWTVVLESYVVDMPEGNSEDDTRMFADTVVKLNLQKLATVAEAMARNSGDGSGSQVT
Procedure: as §1

[7] = system: MAPKKK18 gene expression; assay: MAPKKK18::Luc luciferase reporter assay of ABA induced gene expression; type: in vivo, Arabidopsis thaliana; details: 25 μM test chemical, 25 μM ABA, 6 hr
Procedure: ASV1E9T, PanMe, AA1 and OPZ were evaluated for their ability to block effects of exogenous ABA in inducing MAPKKK18 gene expression in Arabidopsis seedlings. Arabidopsis seeds (MAPKKKI8::Luc reporter line) were surface sterilized grown and plant growth liquid medium (½ Murashige and Skoog medium and 0.5% Sucrose) under 16 hour light and 8 hour dark conditions. 10 day old seedlings were transferred to new plant growth liquid medium with test chemical at 25 μM in presence of equimolar concentration of ABA and 100 μM luciferin. Luciferase assay image were taken by XYZ camera after 6 hr of treatments. The average luminescent intensity was quantified using ImageJ. Average intensity was calculated for quadruplicates and the error bars on graphs represent the standard error of mean. […] (FIG. 14)

[8] = system: Arabidopsis seedlings; assay: Primary root growth assay in presence of ABA; type: in vivo; details: 5 and 10 μM, 10 μM ABA, 72 hrs
Procedure: Purified triazoles were evaluated for their ability to block effects of exogenous ABA in inhibiting primary root growth in Arabidopsis seedlings. Arabidopsis seeds were surface sterilized and plated on 0.7% agar medium containing 1⁄2-x MS salts, 0.5% sucrose. After 4 d of stratification at 4° C., transferred to dark chamber for 48 hrs. 5-6 seedlings at this stage were transferred to chemical plates containing purified triazole hits, PanMe, AA1 and OPZ at 5 and 10 μM in triplicate in presence of 10 μM ABA. Additional ABA controls (10 μM ABA, no antagonist) were also performed to assess effects of ABA on growth in absence of antagonist and transferred to dark chamber at RT for 72 hrs. Root lengths were measured and normalized to mock controls (FIG. 13).

O=C(Cc1cc(C2CC2)c(-n2cc(Cn3c(=O)oc4cc(Cl)ccc43)nn2)c(C2CC2)c1)NC1(C(=O)O)CCCCC1 [1H6T]
phytotoxicity ([1]; 30 μM): possible phytotoxicity
blocking of ABA inhibition of cotyledon greening ([1]; 1 μM ABA): weakly active
receptor selectivity (pan vs selective antagonist) [2]: pan antagonist

COc1ccc(-c2nc3ccccc3n2Cc2cn(-c3c(C4CC4)cc(CC(=O)NC4(C(=O)O)CCCCC4)cc3C3CC3)nn2)cc1 [6E4T]
blocking of ABA inhibition of cotyledon greening ([1]; 1 μM ABA): only weakly effective
receptor selectivity (pan vs selective antagonist) [2]: PYR1-selective antagonist

O=C(Cc1cc(C2CC2)c(-n2cc(CNC(=O)c3cnc4ccccc4n3)nn2)c(C2CC2)c1)NC1(C(=O)O)CCCCC1 [48E9T]
blocking of ABA inhibition of cotyledon greening ([1]; 1 μM ABA): highly effective in blocking the effects of ABA

O=C(Cc1cc(C2CC2)c(-n2cc(CNC(=O)c3coc(Br)c3)nn2)c(C2CC2)c1)NC1CCC(C(=O)O)CC1 (stereo not shown) [49 Å2T]
blocking of ABA inhibition of cotyledon greening ([1]; 1 μM ABA): highly effective in blocking the effects of ABA
block of thermoinhibition of germination [3]: block thermoinhibition

Cc1cccc(C(=O)NCc2cn(-c3c(C4CC4)cc(CC(=O)NC4(C(=O)O)CCCCC4)cc3C3CC3)nn2)n1 [49C10T]
blocking of ABA inhibition of cotyledon greening ([1]; 1 μM ABA): highly effective in blocking the effects of ABA

CCCCCCSC1=C(C)[C@](O)(/C=C/C(C)=C\C(=O)O)C(C)(C)CC1=O [AS6]
in vitro activity (literature antagonists) [4]: modest in vitro activity

[N-]=[N+]=Nc1c(C2CC2)cc(CC(=O)NC2CCC(C(=O)O)CC2)cc1C1CC1 (stereo not shown) [OPZ, 142-(4-Azido-3,5-dicyclopropylphenyl)acetylaminolcyclohexanecarboxylic acid]
light sensitivity [5]: extremely light sensitive
effect on PYR1 in PP2C activity assay [6]: weak partial PYR1 agonist/antagonist

CC1=C[C@@H](OCC#Cc2ccc(C)cc2)CC(C)(C)[C@@]1(O)/C=C/C(C)=C\C(=O)O [PanMe]
block of ABA induced MAPKKK18::Luc gene expression [7]: less effective
block of ABA inhibition of primary root growth [8]: weak effects
phytotoxicity ([1]; 200 nM to 50000 nM dose range): phytotoxicity; also recorded: phytotoxic at higher concentrations
blocking of ABA inhibition of seed germination/greening ([1]; 200 nM to 50000 nM, 1 μM ABA, triplicate): blocks ABA's effects at lower concentrations
in vitro activity (literature antagonists) [4]: modest in vitro activity
block of thermoinhibition of germination [3]: blocks thermoinhibition but its effects decreased at higher concentrations

fluridone
block of thermoinhibition of germination [3]: blocks thermoinhibition at all concentrations tested

Reference: patent US11641857B2, “Unusually potent ABA receptor pan-antagonists” (The Regents of the University of California, priority 2019, dated 2023)
